Measured values as given in ChEMBL document CHEMBL1144986, “Binding of beta-carbolines at 5-HT(2) serotonin receptors” (Bioorg Med Chem Lett, 2003).
Values belong to the compound of their own block, whether it stands above or below them.

Experiments:
[1] = target: T1, 5-hydroxytryptamine receptor 2A (Rattus norvegicus, UniProt P14842); assay: Binding affinity towards cloned rat 5-hydroxytryptamine 2A receptor by [3H]ketanserin displacement.
[2] = target: T1, 5-hydroxytryptamine receptor 2A; assay: Binding affinity for rat 5-hydroxytryptamine 2A receptor using [3H]DOB
[3] = target: T2, 5-hydroxytryptamine receptor 2C (Rattus norvegicus, UniProt P08909); assay: Binding affinity towards cloned rat 5-hydroxytryptamine 2C receptor from fundus tissue by [3H]mesulergine displacement.
T2 sequence (P08909 whole entry): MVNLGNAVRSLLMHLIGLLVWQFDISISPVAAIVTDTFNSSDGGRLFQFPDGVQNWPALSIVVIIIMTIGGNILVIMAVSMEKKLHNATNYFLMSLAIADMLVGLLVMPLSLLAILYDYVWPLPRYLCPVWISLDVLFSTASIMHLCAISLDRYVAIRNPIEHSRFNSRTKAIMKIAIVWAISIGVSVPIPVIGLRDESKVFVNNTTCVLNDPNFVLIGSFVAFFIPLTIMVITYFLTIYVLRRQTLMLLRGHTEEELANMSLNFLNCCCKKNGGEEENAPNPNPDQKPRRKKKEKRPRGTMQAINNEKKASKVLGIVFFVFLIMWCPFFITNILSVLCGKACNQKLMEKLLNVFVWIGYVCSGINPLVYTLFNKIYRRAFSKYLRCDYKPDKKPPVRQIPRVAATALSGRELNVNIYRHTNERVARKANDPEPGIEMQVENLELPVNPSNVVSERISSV

[4] = target: T1, 5-hydroxytryptamine receptor 2A; assay: Binding affinity towards cloned rat Inhibition of binding towards 5-hydroxytryptamine 2A receptor at 100 nM concentration was determined using [3H]ketanserin as radioligand
[5] = target: T1, 5-hydroxytryptamine receptor 2A; assay: Binding affinity towards cloned rat Inhibition of binding towards 5-hydroxytryptamine 2A receptor at 100 nM concentration was determined using [3H]DOB as radioligand
Dopamine receptor = assay: Binding affinity towards Dopamine receptor; assay type: protein assay
[6] = target: GABA-A receptor; anion channel; assay: Binding affinity towards GABA-A benzodiazepine receptor; assay type: protein-complex assay, Rattus norvegicus
[7] = target: Sodium-dependent dopamine transporter (Bos taurus, UniProt P27922); assay: Binding affinity towards DAT (bovine)
Sequence of Sodium-dependent dopamine transporter (P27922 whole entry): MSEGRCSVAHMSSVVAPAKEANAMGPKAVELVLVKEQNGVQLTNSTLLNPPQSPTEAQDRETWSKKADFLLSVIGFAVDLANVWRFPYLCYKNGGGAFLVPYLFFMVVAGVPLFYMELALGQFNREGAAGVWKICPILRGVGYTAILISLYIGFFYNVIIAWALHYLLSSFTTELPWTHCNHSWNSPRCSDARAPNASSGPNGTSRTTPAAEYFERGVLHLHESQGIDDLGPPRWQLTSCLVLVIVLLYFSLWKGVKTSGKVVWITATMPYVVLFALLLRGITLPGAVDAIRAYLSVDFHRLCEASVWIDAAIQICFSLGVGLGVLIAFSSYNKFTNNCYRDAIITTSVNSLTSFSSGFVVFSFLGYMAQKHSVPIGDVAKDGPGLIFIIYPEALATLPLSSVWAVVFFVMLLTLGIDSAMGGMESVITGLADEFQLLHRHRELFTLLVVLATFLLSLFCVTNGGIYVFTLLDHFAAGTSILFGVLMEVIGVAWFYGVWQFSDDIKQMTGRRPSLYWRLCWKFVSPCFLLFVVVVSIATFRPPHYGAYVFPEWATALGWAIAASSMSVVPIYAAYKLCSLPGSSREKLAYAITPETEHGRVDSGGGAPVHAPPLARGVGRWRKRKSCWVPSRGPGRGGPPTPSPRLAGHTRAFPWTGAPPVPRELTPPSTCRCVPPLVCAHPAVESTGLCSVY

[8] = target: T3, 5-hydroxytryptamine receptor 2C (Homo sapiens, UniProt P28335); assay: Binding affinity towards 5-hydroxytryptamine 2C receptor
T3 sequence (P28335 whole entry): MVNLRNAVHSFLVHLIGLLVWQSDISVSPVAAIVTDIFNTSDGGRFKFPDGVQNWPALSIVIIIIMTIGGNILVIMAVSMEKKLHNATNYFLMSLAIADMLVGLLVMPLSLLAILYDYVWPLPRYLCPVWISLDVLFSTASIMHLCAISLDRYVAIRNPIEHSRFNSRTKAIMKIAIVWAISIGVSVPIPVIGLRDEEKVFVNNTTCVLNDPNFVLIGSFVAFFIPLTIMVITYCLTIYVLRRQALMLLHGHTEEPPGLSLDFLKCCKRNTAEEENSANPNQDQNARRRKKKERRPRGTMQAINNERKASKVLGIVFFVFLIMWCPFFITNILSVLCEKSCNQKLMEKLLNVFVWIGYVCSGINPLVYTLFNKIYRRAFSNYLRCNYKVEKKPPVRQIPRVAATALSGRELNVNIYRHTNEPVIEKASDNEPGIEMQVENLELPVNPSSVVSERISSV

[9] = target: Sodium-dependent noradrenaline transporter (Homo sapiens, UniProt P23975); assay: Binding affinity towards NET
Sequence of Sodium-dependent noradrenaline transporter (P23975 whole entry): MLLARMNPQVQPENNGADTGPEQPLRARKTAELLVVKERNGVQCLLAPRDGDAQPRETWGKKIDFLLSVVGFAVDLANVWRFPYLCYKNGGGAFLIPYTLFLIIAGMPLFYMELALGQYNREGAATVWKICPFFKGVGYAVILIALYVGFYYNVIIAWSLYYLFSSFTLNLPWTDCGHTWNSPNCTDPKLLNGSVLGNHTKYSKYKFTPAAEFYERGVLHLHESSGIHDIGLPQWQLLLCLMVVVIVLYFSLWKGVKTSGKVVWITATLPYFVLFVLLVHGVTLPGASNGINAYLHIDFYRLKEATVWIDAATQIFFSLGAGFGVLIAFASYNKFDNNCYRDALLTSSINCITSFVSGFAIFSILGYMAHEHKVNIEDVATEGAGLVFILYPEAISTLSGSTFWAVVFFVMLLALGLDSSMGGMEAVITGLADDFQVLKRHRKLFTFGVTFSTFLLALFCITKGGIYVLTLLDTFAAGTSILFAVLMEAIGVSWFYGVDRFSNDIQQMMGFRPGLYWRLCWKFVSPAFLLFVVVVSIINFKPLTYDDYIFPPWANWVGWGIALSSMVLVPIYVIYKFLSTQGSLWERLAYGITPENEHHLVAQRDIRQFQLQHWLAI

[10] = target: Muscarinic acetylcholine receptor; assay: Binding affinity towards Muscarinic acetylcholine receptor; assay type: protein assay
[11] = target: 5-hydroxytryptamine receptor 1B (Homo sapiens, UniProt P28222); assay: Binding affinity towards 5-hydroxytryptamine 1B receptor
Sequence of 5-hydroxytryptamine receptor 1B (P28222 whole entry): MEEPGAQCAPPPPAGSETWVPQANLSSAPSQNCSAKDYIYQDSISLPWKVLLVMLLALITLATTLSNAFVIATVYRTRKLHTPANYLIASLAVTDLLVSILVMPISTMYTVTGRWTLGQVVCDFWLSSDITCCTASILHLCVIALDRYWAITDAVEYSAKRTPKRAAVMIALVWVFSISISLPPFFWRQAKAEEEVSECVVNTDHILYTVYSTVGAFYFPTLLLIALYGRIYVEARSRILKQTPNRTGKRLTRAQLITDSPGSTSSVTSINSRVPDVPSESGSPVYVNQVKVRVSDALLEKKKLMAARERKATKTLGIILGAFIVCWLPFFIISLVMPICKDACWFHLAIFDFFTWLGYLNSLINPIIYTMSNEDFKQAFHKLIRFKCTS

[12] = target: Serotonin 3 (5-HT3) receptor; assay: Binding affinity towards 5-HT3 receptor; assay type: protein-complex assay
[13] = target: 5-hydroxytryptamine receptor 1D (Homo sapiens, UniProt P28221); assay: Binding affinity towards 5-hydroxytryptamine 1D receptor
Sequence of 5-hydroxytryptamine receptor 1D (P28221 whole entry): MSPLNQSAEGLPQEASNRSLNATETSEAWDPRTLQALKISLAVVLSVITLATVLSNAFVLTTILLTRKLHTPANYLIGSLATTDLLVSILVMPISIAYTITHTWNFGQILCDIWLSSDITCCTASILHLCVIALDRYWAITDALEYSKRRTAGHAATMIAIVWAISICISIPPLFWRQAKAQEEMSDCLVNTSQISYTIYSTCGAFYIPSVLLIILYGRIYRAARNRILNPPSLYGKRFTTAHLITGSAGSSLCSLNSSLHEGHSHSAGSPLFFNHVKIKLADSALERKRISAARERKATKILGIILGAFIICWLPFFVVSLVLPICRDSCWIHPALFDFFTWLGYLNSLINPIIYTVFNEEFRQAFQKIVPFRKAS

[14] = target: 5-hydroxytryptamine receptor 5A (Homo sapiens, UniProt P47898); assay: Binding affinity towards 5-HT5A receptor
Sequence of 5-hydroxytryptamine receptor 5A (P47898 whole entry): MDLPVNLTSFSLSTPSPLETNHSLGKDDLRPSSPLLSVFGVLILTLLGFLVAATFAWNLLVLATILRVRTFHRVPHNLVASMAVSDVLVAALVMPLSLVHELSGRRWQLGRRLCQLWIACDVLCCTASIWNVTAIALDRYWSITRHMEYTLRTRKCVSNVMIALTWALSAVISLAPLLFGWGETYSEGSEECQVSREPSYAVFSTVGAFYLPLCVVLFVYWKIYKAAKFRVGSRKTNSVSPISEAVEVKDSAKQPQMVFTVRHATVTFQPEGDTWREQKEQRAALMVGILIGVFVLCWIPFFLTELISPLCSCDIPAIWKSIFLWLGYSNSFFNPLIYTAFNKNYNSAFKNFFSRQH

[15] = target: 5-hydroxytryptamine receptor 6 (Homo sapiens, UniProt P50406); assay: Binding affinity towards human 5-hydroxytryptamine 6 receptor
Sequence of 5-hydroxytryptamine receptor 6 (P50406 whole entry): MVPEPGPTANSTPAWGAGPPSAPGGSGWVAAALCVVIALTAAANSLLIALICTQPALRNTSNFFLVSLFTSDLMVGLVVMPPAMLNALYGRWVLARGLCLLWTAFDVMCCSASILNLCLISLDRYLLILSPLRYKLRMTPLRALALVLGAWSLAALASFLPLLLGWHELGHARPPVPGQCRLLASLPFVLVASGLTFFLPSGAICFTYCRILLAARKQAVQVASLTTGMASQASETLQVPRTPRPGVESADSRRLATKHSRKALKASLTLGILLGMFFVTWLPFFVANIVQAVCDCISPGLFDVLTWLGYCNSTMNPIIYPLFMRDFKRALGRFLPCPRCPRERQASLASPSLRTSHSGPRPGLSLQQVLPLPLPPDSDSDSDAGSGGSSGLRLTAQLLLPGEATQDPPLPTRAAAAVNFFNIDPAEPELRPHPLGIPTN

[16] = target: T4, 5-hydroxytryptamine receptor 1A (Homo sapiens, UniProt P08908); assay: Binding affinity towards 5-hydroxytryptamine 1A receptor
T4 sequence (P08908 whole entry): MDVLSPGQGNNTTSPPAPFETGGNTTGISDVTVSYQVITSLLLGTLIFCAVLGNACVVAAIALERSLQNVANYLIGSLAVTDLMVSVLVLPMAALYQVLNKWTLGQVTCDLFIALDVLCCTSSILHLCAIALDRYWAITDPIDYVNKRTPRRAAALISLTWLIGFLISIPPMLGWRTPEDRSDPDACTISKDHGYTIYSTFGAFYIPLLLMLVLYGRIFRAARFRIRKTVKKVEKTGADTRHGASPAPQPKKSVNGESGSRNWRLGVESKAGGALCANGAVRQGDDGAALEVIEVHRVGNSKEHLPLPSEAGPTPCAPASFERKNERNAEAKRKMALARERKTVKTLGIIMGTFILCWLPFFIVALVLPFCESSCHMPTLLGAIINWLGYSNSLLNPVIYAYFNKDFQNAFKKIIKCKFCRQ

[17] = target: 5-hydroxytryptamine receptor 7 (Homo sapiens, UniProt P34969); assay: Binding affinity towards 5-hydroxytryptamine 7 receptor
Sequence of 5-hydroxytryptamine receptor 7 (P34969 whole entry): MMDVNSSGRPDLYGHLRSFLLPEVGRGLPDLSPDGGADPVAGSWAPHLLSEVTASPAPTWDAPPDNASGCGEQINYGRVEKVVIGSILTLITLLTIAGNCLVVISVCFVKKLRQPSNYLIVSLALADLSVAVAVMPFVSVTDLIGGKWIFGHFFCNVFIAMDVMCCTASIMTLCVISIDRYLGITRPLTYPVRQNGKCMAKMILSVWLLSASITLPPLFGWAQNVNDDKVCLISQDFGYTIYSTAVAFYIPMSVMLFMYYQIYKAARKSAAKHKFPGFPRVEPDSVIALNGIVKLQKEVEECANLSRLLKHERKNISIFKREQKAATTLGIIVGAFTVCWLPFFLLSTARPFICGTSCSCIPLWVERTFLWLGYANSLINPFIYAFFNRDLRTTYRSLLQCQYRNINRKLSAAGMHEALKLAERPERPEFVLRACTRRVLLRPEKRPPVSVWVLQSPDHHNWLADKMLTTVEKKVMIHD

[18] = target: T1, 5-hydroxytryptamine receptor 2A; assay: Binding affinity towards 5-hydroxytryptamine 2A receptor
[19] = target: Sodium-dependent serotonin transporter (Homo sapiens, UniProt P31645); assay: Binding affinity towards Serotonin transporter
Sequence of Sodium-dependent serotonin transporter (P31645 whole entry): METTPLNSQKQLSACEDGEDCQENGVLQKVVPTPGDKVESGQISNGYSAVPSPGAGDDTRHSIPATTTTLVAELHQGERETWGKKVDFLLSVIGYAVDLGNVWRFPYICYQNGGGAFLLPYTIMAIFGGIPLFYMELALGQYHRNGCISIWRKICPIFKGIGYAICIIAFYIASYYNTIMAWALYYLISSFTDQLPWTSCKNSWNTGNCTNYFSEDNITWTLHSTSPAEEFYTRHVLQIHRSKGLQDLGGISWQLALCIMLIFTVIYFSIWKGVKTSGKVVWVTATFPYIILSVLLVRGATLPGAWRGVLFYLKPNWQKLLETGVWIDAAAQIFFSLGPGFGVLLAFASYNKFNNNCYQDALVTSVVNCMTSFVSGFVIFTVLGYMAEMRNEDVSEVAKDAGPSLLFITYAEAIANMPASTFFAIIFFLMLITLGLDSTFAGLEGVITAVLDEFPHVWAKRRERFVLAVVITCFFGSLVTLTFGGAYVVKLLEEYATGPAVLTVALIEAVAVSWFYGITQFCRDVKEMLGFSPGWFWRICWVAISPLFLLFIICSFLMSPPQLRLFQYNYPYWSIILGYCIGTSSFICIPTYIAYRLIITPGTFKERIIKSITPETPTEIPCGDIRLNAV

[20] = target: T1, 5-hydroxytryptamine receptor 2A; assay: Binding affinity towards cloned rat 5-hydroxytryptamine 2A receptor from fundus tissue was determined using [3H]mesulergine as radioligand
[21] = target: Beta-1 adrenergic receptor (Homo sapiens, UniProt P08588); assay: Binding affinity towards Beta-1A adrenergic receptor
[22] = target: Alpha-1A adrenergic receptor (Homo sapiens, UniProt P35348); assay: Binding affinity towards Alpha-1A adrenergic receptor
[23] = target: Alpha-1B adrenergic receptor (Homo sapiens, UniProt P35368); assay: Binding affinity towards Alpha-1B adrenergic receptor
Sequence of Alpha-1B adrenergic receptor (P35368 whole entry): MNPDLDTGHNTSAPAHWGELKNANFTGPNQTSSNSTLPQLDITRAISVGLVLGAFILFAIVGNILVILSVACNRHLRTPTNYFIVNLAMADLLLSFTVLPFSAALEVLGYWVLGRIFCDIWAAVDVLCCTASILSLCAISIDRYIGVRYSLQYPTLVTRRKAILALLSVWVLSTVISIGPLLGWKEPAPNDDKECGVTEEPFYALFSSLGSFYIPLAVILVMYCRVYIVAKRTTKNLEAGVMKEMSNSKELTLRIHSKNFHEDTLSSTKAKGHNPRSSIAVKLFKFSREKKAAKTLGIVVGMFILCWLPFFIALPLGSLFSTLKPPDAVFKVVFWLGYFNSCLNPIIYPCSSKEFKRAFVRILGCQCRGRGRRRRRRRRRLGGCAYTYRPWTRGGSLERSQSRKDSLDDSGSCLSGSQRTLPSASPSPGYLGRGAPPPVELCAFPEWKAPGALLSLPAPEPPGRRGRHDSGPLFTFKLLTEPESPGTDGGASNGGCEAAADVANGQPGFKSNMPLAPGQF

[24] = target: Muscarinic acetylcholine receptor; assay: Binding affinity towards Muscarinic receptor; assay type: protein assay
[25] = target: Alpha-2B adrenergic receptor (Homo sapiens, UniProt P18089); assay: Binding affinity towards Alpha-2B adrenergic receptor
[26] = target: Alpha-2A adrenergic receptor (Homo sapiens, UniProt P08913); assay: Binding affinity towards alpha-2A-Adrenergic receptor
[27] = target: Alpha-2C adrenergic receptor (Homo sapiens, UniProt P18825); assay: Binding affinity towards Alpha-2C adrenergic receptor
[28] = target: Beta-2 adrenergic receptor (Homo sapiens, UniProt P07550); assay: Binding affinity towards Beta-2A adrenergic receptor

T1 sequence (P14842 whole entry): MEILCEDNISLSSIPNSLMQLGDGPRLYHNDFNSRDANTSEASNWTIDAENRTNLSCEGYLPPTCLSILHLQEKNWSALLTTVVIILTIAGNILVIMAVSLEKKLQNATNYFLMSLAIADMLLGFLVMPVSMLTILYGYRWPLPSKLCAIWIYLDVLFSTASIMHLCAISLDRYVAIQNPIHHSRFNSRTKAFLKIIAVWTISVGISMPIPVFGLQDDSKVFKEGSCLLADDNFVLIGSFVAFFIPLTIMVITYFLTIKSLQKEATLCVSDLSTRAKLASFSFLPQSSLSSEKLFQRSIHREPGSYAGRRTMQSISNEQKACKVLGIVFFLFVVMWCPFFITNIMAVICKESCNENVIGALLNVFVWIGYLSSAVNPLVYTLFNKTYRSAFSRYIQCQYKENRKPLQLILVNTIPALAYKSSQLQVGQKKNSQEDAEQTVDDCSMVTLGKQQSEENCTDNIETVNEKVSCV

Compound: COc1ccc2[nH]c3c(c2c1)CCNC3
Ki [1]: 4780 nM
Ki [2]: 1400 nM
Ki [3]: 2190 nM

Compound: C1=NCCc2c1[nH]c1ccccc21
Ki [3]: 1100 nM
Ki [4]: 2560 nM
Ki [5]: 2150 nM

Compound: Brc1cccc2[nH]c3c(c12)CCN=C3
Ki [1]: 390 nM
Ki [3]: 140 nM

Compound: COc1cccc2c3c([nH]c12)C=NCC3
Ki [1]: 3240 nM
Ki [2]: 2550 nM
Ki [3]: 1350 nM

Compound: COc1cccc2c3c([nH]c12)CNCC3
Ki [1]: 640 nM
Ki [2]: 400 nM
Ki [3]: 1270 nM

Compound: CC1=NCCc2c1[nH]c1ccccc21
Ki (Dopamine receptor): > 10000 nM
Ki [6]: > 10000 nM
Ki [7]: > 10000 nM
Ki [8]: 1860 nM
Ki [9]: > 10000 nM
Ki [10]: > 10000 nM
Ki [11]: > 10000 nM
Ki [12]: > 10000 nM
Ki [13]: > 10000 nM
Ki [14]: 845 nM
Ki [15]: 1450 nM
Ki [16]: > 1670 nM
Ki [17]: 280 nM
Ki [18]: 1150 nM
Ki [19]: > 10000 nM

Compound: COc1ccc2[nH]c3c(c2c1)CCN=C3C
Ki (Dopamine receptor): > 10000 nM
Ki [6]: > 10000 nM
Ki [7]: > 10000 nM
Ki [8]: 924 nM
Ki [9]: > 4100 nM
Ki [10]: > 10000 nM
Ki [11]: > 10000 nM
Ki [12]: > 10000 nM
Ki [13]: > 10000 nM
Ki [14]: > 10000 nM
Ki [15]: 1930 nM
Ki [16]: > 10000 nM
Ki [17]: 2960 nM
Ki [18]: 5600 nM
Ki [19]: > 10000 nM

Compound: CC(C)Oc1cccc2[nH]c3c(c12)CCN=C3
Ki [20]: 1410 nM

Compound: CC1=NCCc2c1[nH]c1cccc(OC(C)C)c21
Ki [1]: 470 nM
Ki [3]: 26 nM

Ki [1]: 124 nM
Ki [3]: 200 nM
Compound: C1=NCCc2c1[nH]c1cccc(OCc3ccccc3)c21

Compound: Brc1ccc2c3c([nH]c2c1)C=NCC3
Ki [1]: 1330 nM
Ki [3]: 2100 nM

Compound: Brc1ccc2c3c([nH]c2c1)CNCC3
Ki [1]: 240 nM
Ki [3]: 250 nM

Compound: COc1ccc2c3c([nH]c2c1)CNCC3
Ki [21]: > 10000 nM
Ki [1]: 4620 nM
Ki [22]: > 10000 nM
Ki [23]: > 10000 nM
Ki [24]: > 10000 nM
Ki [2]: 2200 nM
Ki [8]: > 10000 nM
Ki [11]: > 10000 nM
Ki [25]: 140 nM
Ki [12]: > 10000 nM
Ki [13]: > 10000 nM
Ki [14]: > 10000 nM
Ki [15]: > 10000 nM
Ki [16]: > 10000 nM
Ki [17]: 1400 nM
Ki [18]: 4620 nM
Ki [26]: 1370 nM
Ki [3]: > 10000 nM
Ki [27]: 1740 nM
Ki [19]: > 10000 nM
Ki [28]: > 10000 nM

Compound: Brc1cccc2[nH]c3c(c12)CCNC3
Ki [1]: 180 nM
Ki [2]: 80 nM
Ki [3]: 130 nM

Compound: Brc1ccc2[nH]c3c(c2c1)CCNC3
Ki [1]: 500 nM
Ki [3]: 210 nM

Compound: COc1cccc2[nH]c3c(c12)CCNC3
Ki [1]: 130 nM
Ki [2]: 75 nM
Ki [3]: 140 nM

Compound: COc1cccc2[nH]c3c(c12)CCN=C3
Ki [1]: 470 nM
Ki [2]: 500 nM
Ki [3]: 75 nM

Compound: Brc1ccc2[nH]c3c(c2c1)CCN=C3
Ki [1]: 1720 nM
Ki [3]: 1200 nM

Compound: COc1ccc2[nH]c3c(c2c1)CCN=C3
Ki [1]: 2370 nM
Ki [3]: 1170 nM

Compound: Brc1cccc2c3c([nH]c12)C=NCC3
Ki [1]: 110 nM
Ki [2]: 115 nM
Ki [3]: 140 nM

Compound: Brc1cccc2c3c([nH]c12)CNCC3
Ki [1]: 22 nM
Ki [2]: 21 nM
Ki [3]: 48 nM

Compound: COc1ccc2c3c([nH]c2c1)C=NCC3 [CGS-19281A]
Ki [1]: > 10000 nM
Ki [2]: > 10000 nM
Ki [3]: > 10000 nM

Compound: COc1ccc2c(c1)[nH]c1c(C)nccc12 [HARMINE]
Ki (Dopamine receptor): > 10000 nM
Ki [21]: > 10000 nM
Ki [6]: > 10000 nM
Ki [22]: > 10000 nM
Ki [23]: > 10000 nM
Ki [7]: > 10000 nM
Ki [8]: 9340 nM
Ki [9]: 3260 nM
Ki [10]: > 10000 nM
Ki [11]: > 10000 nM
Ki [25]: 1130 nM
Ki [12]: > 10000 nM
Ki [13]: > 10000 nM
Ki [14]: > 10000 nM
Ki [15]: 1480 nM
Ki [16]: > 10000 nM
Ki [17]: 5500 nM
Ki [18]: 7790 nM
Ki [26]: 2540 nM
Ki [27]: 810 nM
Ki [19]: > 10000 nM
Ki [28]: > 10000 nM

Compound: c1ccc2c3c([nH]c2c1)CNCC3 [TRYPTOLINE]
Ki [1]: 3800 nM
Ki [2]: 3000 nM
Ki [3]: > 10000 nM
